How the values were obtained:
[1] = system: pyrexia (Saccharomyces cerevisiae); test: Anti-pyrexia activity (yeast-induced); type: in vivo; conditions: Rattus norvegicus, oral, read-out: Rate of inhibiting pyrexia (I.R.)
Summary of the method: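 Rats (n=6/group) received subcutaneous 20% Saccharomyces cerevisiae suspension, fasted 10 h, then dosed orally with 1000 mg/kg compound in distilled water. Rectal temperature was tracked at set intervals and the lowest value taken; inhibition rate computed against non-yeast and yeast-only control temperatures.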

acetic acid writhing = test: Analgetic activity against chemical stimulation of acetic acid (writhing); type: in vivo, mouse (ICR female); conditions: Mus musculus, po, 30 min before 0.6% acetic acid, read-out: I.R. of writhing
From the text: Rate of inhibition (I.R.) (%)=(1-T/C)×100
T represents the average number of writhing of the group of mice administered with the present compound and injected with acetic acid, and C represents the average number of writhing of the group of mice only injected with acetic acid (control).

level of blood sugar = test: Anti-hyperglycemia activity (reduction of blood sugar level); type: in vivo, rat (Wistar, streptozotocin); conditions: oral, 300 mg/kg
Summary of the method: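 Streptozotocin-diabetic Wistar rats (60 mg/kg i.p., relapsed hyperglycemia after insulin) given compounds orally at 300 mg/kg in distilled water. Blood sugar measured in samples taken 3 and 6 h post-dose.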

beta-lipoprotein = test: Anti-hyperlipemia activity, beta-lipoprotein in blood; type: in vivo, rabbit (Japanese white male); conditions: oral, 300 mg/kg once
Summary of the method: (§1)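 Male Japanese white rabbits fed 1% cholesterol diet for 3 months received compound once orally at 300 mg/kg in water. Ear-vein blood: cholesterol by enzymatic method, beta-lipoprotein by colorimetry; values are change from predose at 3 or 6 h.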

Sarcoma-180 = test: Anti-tumour activity against Sarcoma-180; type: in vivo, mouse (ICR-JCL); conditions: Mus musculus, Sarcoma-180, po, 600 h, 10 times every other day, tumour weight on 25th day, read-out: Antitumour activity, inhibiting rate (I.R.)
Summary of the method: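 ICR-JCL mice were given 1×10^6 Sarcoma-180 cells axillary; from 24 hours, compounds in saline were dosed orally at 500 mg/kg/time, 10 times every other day. Tumour nodes were weighed on day 25; inhibition rate = (1-T/C)×100(%) versus untreated tumour-bearing mice.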

carrageenin edema = test: Anti-Carrageenin edema activity; type: in vivo, rat; conditions: Rattus norvegicus, po, 1000 mg/kg once, read-out: I.R. against carrageenin edema
Summary of the method: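 Rats (10 per group) given compound orally once at 1000 mg/kg in distilled water, then 0.1 ml 1% carrageenin injected into right hind foot pad. Foot pad thickness measured at intervals; inhibition rate (%) = (1−T/C)×100 versus carrageenin-only animals.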

total cholesterol = test: Anti-hyperlipemia activity, total cholesterol in blood; type: in vivo, rabbit (Japanese white male); conditions: oral, 300 mg/kg once; for Reduction of cholesterol level after 3 hrs.: negative = raising
Summary of the method: as §1

blood pressure = test: Anti-hypertension activity (reduction of blood pressure); type: in vivo, rat (spontaneous hypertension); conditions: oral, 300 mg/kg
Summary of the method: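 Spontaneously hypertensive rats dosed orally at 300 mg/kg in distilled water. Blood pressure measured at 3 and 6 h. Activity taken as change from the value just before dosing.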

[2] = system: pseudo-escaping reaction to tail pressure; test: Analgetic activity against mechanical stimulation of pressure; type: in vivo, mouse (ICR female); conditions: oral, 1000 mg/kg
in vivo = conditions: mouse, in vivo, po, mice, 7 days observation, read-out: LD50, acute oral toxicity
cotton pellet granuloma = test: Anti-granuloma activity (cotton pellet); type: in vivo, rat; conditions: Rattus norvegicus, po, 192 h, 7 days, read-out: I.R. against cotton pellet edema
Summary of the method: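 Rats (6/group) implanted dorsally with two 30±1 mg cotton pellets; compounds given orally in distilled water at 1000 mg/kg/day once daily for 7 days. Granuloma excised on day 8 and dry weight measured; value is % inhibition of granuloma proliferation.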

exudation = test: Anti-exudation activity (air pouch, croton oil); type: in vivo, rat; conditions: Rattus norvegicus, po, 144 h, 5 days, read-out: I.R. against exudation
Summary of the method: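 Rats, 6 per group, given subcutaneous dorsal air pouch injected with 0.5 ml sesame oil containing 1% croton oil. Compounds dosed orally in distilled water at 1000 mg/kg/day for five days; pouch exudate volume measured on day 6 and expressed as percent inhibition of exudation.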

SMILES | inhibition in vivo at 1000 mg/kg [1] [%] | inhibition in vivo at 1000 mg/kg (acetic acid writhing) [%] | Reduced level of blood sugar after 3 hrs. (level of blood sugar) [mg/dL] | Reduced level of blood sugar after 6 hrs. (level of blood sugar) [mg/dL] | Reduction of beta-lipoprotein level after 3 hrs. (beta-lipoprotein) [mg/dL] | Reduction of beta-lipoprotein level after 6 hrs. (beta-lipoprotein) [mg/dL] | inhibition in vivo at 500 mg/kg (Sarcoma-180) [%] | inhibition in vivo at 1000 mg/kg (carrageenin edema) [%] | Reduction of cholesterol level after 3 hrs. (total cholesterol) [mg/dL] | Reduction of cholesterol level after 6 hrs. (total cholesterol) [mg/dL] | Reduced level of blood pressure after 3 hrs. (blood pressure) [mm Hg] | Reduced level of blood pressure after 6 hrs. (blood pressure) [mm Hg] | Pseudo-escapting reaction pressure [2] [mmHg] | Pseudo-escapting reaction time [2] [s] | LD50 at 168 h (in vivo) [mg/kg] | inhibition in vivo at 1000 mg/kg/day (cotton pellet granuloma) [%] | inhibition in vivo at 1000 mg/kg/day (exudation) [%]
O=C(OCc1ccccc1)c1ccc(NC2(CO)OC[C@@H](O)[C@@H](O)[C@@H]2O)cc1 (stereo partly drawn) [Compound 15, benzyl p-aminobenzoate-N-D-fructoside] | 26 | 19 | 72 | 85 | 150 | 154 | 43 | 30.8 | -1 | 45 | 18 | 20 | 78 | 37 | 11000 | 9 | 7.5
O=C(OC1CCCCC1)c1ccccc1NC1C[C@H](O)[C@H](O)CO1 (stereo partly drawn) [Compound 16, cyclohexyl o-aminobenzoate-N-D-deoxyriboside] | 48 | 26 | 125 | 140 | 104 | 110 | 37 | 18.6 | 0 | 33 | 20 | 20 | 87 | 39 | 8800 | 6.5 | 5.7
O=C(OC1CCCCC1)c1cccc(NC2O[C@H](CO)[C@@H](O)[C@H](O)[C@@H]2O)c1 (stereo partly drawn) [Compound 17, cyclohexyl m-aminobenzoate-N-D-mannoside] | 30 | 47 | 140 | 145 | 124 | 136 | 49 | 4.3 | -2 | 40 | 23 | 28 | 92 | 42 | > 15000 | 19.7 | 14.6
O=C(OC1CCCCC1)c1ccc(NC2OC[C@@H](O)[C@H](O)[C@H]2O)cc1 (stereo partly drawn) [Compound 18, cyclohexyl p-aminobenzoate-N-D-xyloside] | 62 | 33 | 121 | 165 | 148 | 154 | 62 | 19.7 | 2 | 62 | 22 | 25 | 94 | 39 | > 15000 | 12.2 | 25
O=C(OC1CCCCC1)c1ccc(NC2O[C@H](CO)[C@@H](O[C@@H]3O[C@H](CO)[C@@H](O)[C@H](O)[C@H]3O)[C@H](O)[C@H]2O)cc1 (stereo partly shown) [Compound 19, cyclohexyl p-aminobenzoate-N-cellobioside] | 37 | 24 | 101 | 113 | 135 | 148 | 51 | 5.5 | 3 | 41 | 20 | 21 | 82 | 37 | 14600 | 5.5 | 24.6
O=C(OC1CCCCC1)c1ccc(NC2O[C@H](CO)[C@@H](O[C@H]3O[C@H](CO)[C@@H](O[C@H]4O[C@H](CO)[C@@H](O)[C@H](O)[C@H]4O)[C@H](O)[C@H]3O)[C@H](O)[C@H]2O)cc1 (stereo partly shown) [Compound 20, cyclohexyl p-aminobenzoate-N-maltotrioside] | 23 | 17 | 113 | 120 | 125 | 128 | 37 | 8.6 | -2 | 50 | 22 | 24 | 75 | 35 | 12500 | 21.7 | 6.2
O=C(OCC1CCCCC1)c1ccccc1NC1O[C@H](CO)[C@@H](O[C@@H]2O[C@H](CO)[C@H](O)[C@H](O)[C@H]2O)[C@H](O)[C@H]1O (stereo partly shown) [Compound 21, hexahydrobenzyl o-aminobenzoate-N-lactoside] | 28 | 28 | 95 | 102 | 96 | 109 | 44 | 19.4 | 4 | 43 | 16 | 17 | 84 | 40 | > 15000 | 7.2 | 20.7
C[C@@H]1OC(Nc2cccc(C(=O)OCC3CCCCC3)c2)[C@@H](O)[C@H](O)[C@@H]1O (stereo partly drawn) [Compound 22, hexahydrobenzyl m-aminobenzoate-N-L-fucoside] | 29 | 19 | 133 | 150 | 125 | 133 | 35 | 24.6 | 6 | 38 | 15 | 21 | 75 | 37 | 10100 | 15.7 | 7.7

Source: US4372948A, “Derivative of saccharide and physiologically active agent containing the same” (Kureha Kagaku Kogyo Kabushiki Kaisha, priority 1980, dated 1983)
